# From patent publication US20260265222A1, “1H-PYRROLE-2-AMIDE DERIVATIVE, PHARMACEUTICAL COMPOSITION AND METHOD FOR TREATING AND/OR PREVENTING YTHDC1-RELATED DISEASES” (priority 2023, published 2026)
# Target: T1, GST-YTHDC1 (345-509) protein (Homo sapiens, UniProt Q96MU7)
# T1 construct: GST-YTHDC1 (345-509) protein
# Assay: Fluorescence polarization-based in vitro enzyme-level test against YTHDC1
# Assay type: binding
# Details: 30 nM GST-YTHDC1 (345-509), FAM-labeled m6A-modified single-stranded oligonucleotide, 18° C., 4 hours; read-out: IC50 (Inhibitory Activity against YTHDC1)
row,IC50 [nM],SMILES
1,14,O=C(Nc1ccc(-c2cnco2)cc1)c1cc(C(=O)c2ccccc2N2CCCCC2)c[nH]1 [Compound 132]
2,2820,CCN1CCN(c2ccccc2C(=O)c2c[nH]c(C(=O)Nc3ccc(-c4cnco4)cc3)c2)CC1 [Compound 135]
3,99,O=C(Nc1ccc(-c2cnco2)cc1)c1cc(C(=O)c2ccccc2N2CC3CCC2CO3)c[nH]1 (centres unmarked) [Compound 134]
4,16,COc1cc(NC(=O)c2cc(C(=O)c3ccccc3C(F)(F)F)c[nH]2)ccc1C(F)(F)F [Compound 114]
5,23,CCOC(=O)c1ccc(NC(=O)c2cc(C(=O)c3ccccc3C(F)(F)F)c[nH]2)cc1 [Compound 20]
6,12,O=C(Nc1ccc(-c2cnco2)cc1)c1cc(C(=O)c2ccccc2N2CCSCC2)c[nH]1 [Compound 118]
7,123,O=C(Nc1ccc(-c2cnc(N3CCOCC3)o2)cc1)c1cc(C(=O)c2ccccc2Br)c[nH]1 [Compound 78]
8,14.5,COCOc1cc(NC(=O)c2cc(C(=O)c3ccccc3C(F)(F)F)c[nH]2)ccc1-c1cnco1 [Compound 96]
9,71.2,O=C(Nc1ccc(-c2cnc(N3CCN(C4COC4)CC3)o2)cc1)c1cc(C(=O)c2ccccc2C(F)(F)F)c[nH]1 [Compound 88]
10,14,O=C(Nc1ccc(-c2cnco2)cc1)c1cc(C(=O)c2ccccc2-c2ccccc2)c[nH]1 [Compound 152]
11,> 50000,O=C(Nc1ccc(-c2cncs2)cc1)c1cc2c(-c3ccncc3C(F)(F)F)nccc2[nH]1 [Compound 49]
12,25,O=C(Nc1ccc(-c2cnco2)cc1)c1cc(C(=O)c2ccccc2N2CCCC2=O)c[nH]1 [Compound 121]
13,44,CN1CCN(c2ccc(-c3ccc(NC(=O)c4cc(C(=O)c5ccccc5C(F)(F)F)c[nH]4)cc3)cc2)CC1 [Compound 109]
14,928,O=C(Nc1ccc(-c2cncs2)cc1)c1cc2c(-c3ccccc3N3CCOCC3)nccc2[nH]1 [Compound 56]
15,1770,O=C(Nc1ccc(-c2ccc(N3CCCC3)cc2)cc1)c1cc(C(=O)c2ccccc2C(F)(F)F)c[nH]1 [Compound 106]
16,10600,COc1ccccc1C(=O)c1c[nH]c(C(=O)Nc2cccnc2)c1 [Compound 9]
17,13,CCN(C)c1ccccc1C(=O)c1c[nH]c(C(=O)Nc2ccc(-c3cnco3)cc2)c1 [Compound 127]
18,278,O=C(Nc1ccc(-c2cncs2)cc1)c1cc2c(-c3ccccc3[N+](=O)[O-])nccc2[nH]1 [Compound 55]
19,39,O=C(Nc1ccc(-c2cnco2)cc1)c1cc(C(=O)c2ccccc2C2=COCC2)c[nH]1 [Compound 145]
20,183,COC(=O)c1cccc(-c2ccc(NC(=O)c3cc(C(=O)c4ccccc4C(F)(F)F)c[nH]3)cc2)c1 [Compound 108]
21,> 50000,O=C(Nc1ccc(-c2cnc(N3CCN(S(=O)(=O)Cc4ccccc4)CC3)o2)cc1)c1cc(C(=O)C2C=CC=CC2C(F)(F)F)c[nH]1 (centres unmarked) [Compound 89]
22,42,O=C(Nc1ccc(OC(F)(F)F)cc1)c1cc(C(=O)c2ccccc2C(F)(F)F)c[nH]1 [Compound 17]
23,234,O=C(Nc1ccc(-c2cnc(N3CCN(C4COC4)CC3)o2)cc1)c1cc(C(=O)c2ccccc2Br)c[nH]1 [Compound 85]
24,> 50000,O=C(Nc1ccc(-c2cncs2)cc1)c1cc2c(-c3ccc(C(F)(F)F)cc3C(F)(F)F)nccc2[nH]1 [Compound 48]
25,88,CN1CCN(c2ncc(-c3ccc(NC(=O)c4cc(C(=O)c5ccccc5C(F)(F)F)c[nH]4)cc3)o2)CC1 [Compound 79]
26,424,O=C(Nc1ccc(-c2cnc(N3CC(F)(F)C3)s2)cc1)c1cc(C(=O)c2ccccc2C(F)(F)F)c[nH]1 [Compound 35]
27,248,O=C(Nc1cccc(F)c1)c1cc(C(=O)c2ccccc2C(F)(F)F)c[nH]1 [Compound 14]

row,IC50 [nM],SMILES
1,2320,O=C(Nc1ccc(-c2cnc(N3CCN(S(=O)(=O)C4CC4)CC3)o2)cc1)c1cc(C(=O)C2C=CC=CC2Br)c[nH]1 (centres unmarked) [Compound 87]
2,530,Cn1nc(C(F)(F)F)cc1-c1ccc(NC(=O)c2cc(C(=O)c3ccccc3C(F)(F)F)c[nH]2)cc1 [Compound 30]
3,394,O=C(Nc1ccc(-c2cncs2)cc1)c1cc2c(-c3ccccc3OC(F)F)nccc2[nH]1 [Compound 63]
4,39,Cc1cc(-c2cnco2)ccc1NC(=O)c1cc(C(=O)c2ccccc2C(F)(F)F)c[nH]1 [Compound 95]
5,3.7,COc1cc(NC(=O)c2cc(C(=O)c3ccccc3C(F)(F)F)c[nH]2)ccc1-c1cnco1 [Compound 90]
6,> 50000,CC(=O)c1ccccc1-c1nccc2[nH]c(C(=O)Nc3ccc(-c4cncs4)cc3)cc12 [Compound 51]
7,≥ 50000,O=C(Nc1ccc(C(=O)N2CCC3(CC2)OCc2ccccc23)cc1)c1cc(C(=O)c2ccccc2C(F)(F)F)c[nH]1 [Compound 120]
8,120,O=C(Nc1ccccc1)c1cc(C(=O)c2ccccc2C(F)(F)F)c[nH]1 [Compound 12]
9,> 50000,O=C(Nc1ccc(-c2cncs2)cc1)c1cc2c(-c3ccccc3C3CC3)nccc2[nH]1 [Compound 66]
10,> 50000,CN(C)c1ncc(-c2ccc(NC(=O)c3cc4c(-c5ccccc5S(C)(=O)=O)nccc4[nH]3)cc2)o1 [Compound 71]
11,13,O=C1CC2C=C(c3ccc(NC(=O)c4cc(C(=O)c5ccccc5C(F)(F)F)c[nH]4)cc3)C=CC2N1 (centres unmarked) [Compound 126]
12,22,O=C(Nc1ccc(-c2cnc(N3CC(F)C3)s2)cc1)c1cc(C(=O)c2ccccc2C(F)(F)F)c[nH]1 [Compound 34]
13,1570,CCc1ccccc1C(=O)c1c[nH]c(C(=O)Nc2cccnc2)c1 [Compound 11]
14,31200,CC(C)(C)OC(=O)n1cc(-c2ccc(NC(=O)c3cc(C(=O)c4ccccc4C(F)(F)F)c[nH]3)cc2)c2ccccc21 [Compound 129]
15,2640,O=C(Nc1cccc(C(F)(F)F)c1)c1cc(C(=O)c2ccccc2C(F)(F)F)c[nH]1 [Compound 115]
16,> 50000,CS(=O)(=O)c1ccccc1-c1nccc2[nH]c(C(=O)Nc3ccc(-c4cncnc4)cc3)cc12 [Compound 74]
17,344,CN1CCN(c2ncc(-c3ccc(NC(=O)c4cc(C(=O)c5ccccc5Br)c[nH]4)cc3)o2)CC1 [Compound 80]
18,1560,O=C(Nc1ccc(-c2cnco2)cc1)c1cc(C(=O)c2ccccc2N2CCC(c3ccccc3)C2)c[nH]1 (centres unmarked) [Compound 151]
19,≥ 50000,O=C(Nc1ccc(C(F)(F)F)cc1[N+](=O)[O-])c1cc(C(=O)c2ccccc2C(F)(F)F)c[nH]1 [Compound 112]
20,13,O=C(Nc1ccc(-c2cnc(N3CCCC3)s2)cc1)c1cc(C(=O)c2ccccc2C(F)(F)F)c[nH]1 [Compound 36]
21,10,O=C(Nc1ccc(-c2cnco2)cc1)c1cc(C(=O)c2ccccc2C(F)(F)F)c[nH]1 [Compound 28]
22,98.7,O=C(Nc1ccc2c(c1)OCc1ccccc1-2)c1cc(C(=O)c2ccccc2C(F)(F)F)c[nH]1 [Compound 83]
23,> 50000,O=C(Nc1ccc(-c2cncs2)cc1)c1cc2c(-c3c[nH]nc3C(F)(F)F)nccc2[nH]1 [Compound 54]
24,41,O=C(Nc1ccc(Br)cc1)c1cc(C(=O)c2ccccc2C(F)(F)F)c[nH]1 [Compound 16]
25,3900,N#Cc1ccccc1-c1nccc2[nH]c(C(=O)Nc3ccc(-c4cncs4)cc3)cc12 [Compound 43]
26,105,O=C(Nc1ccc(F)cc1)c1cc(C(=O)c2ccccc2C(F)(F)F)c[nH]1 [Compound 15]
